These results are taken from ChEMBL document CHEMBL1149725, “4-acetylaplykurodin B and aplykurodinone B, two ichthyotoxic degraded sterols from the Mediterranean mollusk Aplysia fasciata” (J Nat Prod, 1992).

What all share (format): organism-based
Holding throughout (settings): in vivo

For data set [1], the system named is Artemia salina. In words: Toxicity in Artemia salina.
The subject of data set [2] is Gambusia affinis. The data set is described as follows: Toxicity in Gambusia affinis at 10 ppm.
Data set [3] concerns Carassius auratus. The data set is described as follows: Ichthyotoxicity in Carassius auratus at 60 ug/cm'2 by antifeedant assay.

By LC50 is commonly meant the concentration that kills 50% of the test population. A high value points to lower toxicity. `CC(=O)O[C@H]1CC[C@@]2(C)[C@H]3[C@H]1CC(=O)O[C@H]3C[C@@H]2[C@H](C)CCC=C(C)C` [4-ACETYLAPLYKURODIN B] showed a median lethal concentration (LC50) in data set [1] of 29.1 ppm. In addition, the Activity result in data set [2] is reported as “Toxic”; in data set [3], “Active”.
Consider `CC(C)=CCC[C@@H](C)[C@H]1C[C@@H]2OC(=O)C[C@H]3C(=O)CC[C@@]1(C)[C@H]23` [APLYKURODINONE], for which the figures for the Activity result in data set [2] and in data set [3] were “Toxic” and “Active”, respectively.
